Experimental data published in US9458200B2, “Method for producing intermediates for the production of novel macrocycles that are inhibitors of the proteasomic degradation of p27, such as argyrin and derivatives thereof, and uses of said macrocycles” (Gottfried Wilhelm Leibniz Universität Hannover, priority 2008, dated 2016).
Values after ≈ are worked out from the molar mass of the structure shown. Starred links: 1 amine or outer side, 2 acyl side, 3 side chain; linkers in the order of their positions; H or OH if unused. Non-standard residues stand in square brackets, D forms with d. Residues, ends and D or L forms follow the SMILES beside them. Trp(4-OMe) = COc1cccc2[nH]cc(C[C@H](N)C(=O)O)c12; X1 = O=C(c1csc([C@@H](CO)N[*:1])n1)[*:2]; Dha = C=C(N)C(=O)O; Sar = CNCC(=O)O

Experiments:
[1] = biological target: T1, erythrocyte-derived 20S proteasome, caspase-like activity (Homo sapiens, UniProt P28072+Q99436); assay: 20S-Proteasome-Test (manual), caspase-like substrate; assay type: biochemical
T1 construct: using erythrocyte-derived 20S proteasome; purchased Biomol International PW8720; host or cells: human erythrocytes
Procedure: (§1) Proteasome assays with purified 20S proteasome were performed as previously described (Lightcap, E. S. et al. Proteasome inhibition measurements: clinical application. Clin Chem 46, 673-83 (2000)) using erythrocyte-derived 20S proteasome (Biomol International,#LP PW8720) and fluorometric substrates Succ-LLVY-AMC, BZ-VGR-AMC and Z-Lle-AMC (Biomol International, LP PW9905) as probes according to the manufacturers instructions. Proteasome extraction from cells and tumor sections was done as previously described (Crawford, L. J. et al. Comparative selectivity and specificity of the proteasome inhibitors BzLLLCOCHO, PS-341, and MG-132. Cancer Res 66, 6379-86 (2006)). Briefly cells (MEF or MCF-7) or tissue sample homogenate (tumor sections) were re-suspended in 1 mL ATP/DTT lysis buffer (10 mmol/L Tris-HCl (pH7.8), 5 mmol/L ATP, 0.5 mmol/L DTT, 5 mmol/L MgCl2), and incubated on ice for 10 minutes, followed by sonication for 15 seconds. The lysates were centrifuged at 400×g for 10 min at 4° C., and the resulting supernatant containing proteasomes was stable at −80° C. with the addition of 20% glycerol for at least 1 month. Protein concentration of the samples was measured using a coomassie protein assay (Pierce, Rockford, Ill.).
(§2) Proteasome assays with purified 20S proteasome were performed as previously described (Lightcap et al., 2000) using erythrocyte-derived 20S proteasome (Biomol International,#LP PW8720) and fluorometric substrates Succ-LLVY-AMC, BZ-VGR-AMC and Z-Lle-AMC (Biomol International, LP PW9905). Proteasome extraction from cells and tumor sections was done as previously described (Crawford et al., 2006). For proteasome extraction from whole blood, frozen whole blood cell pellets were thawed and lysed in 2-3 pellet volumes cold lysis buffer (5 mM EDTA, pH 8.0). […] The rate of cleavage of fluorogenic peptide substrates was determined by monitoring the fluorescence of released aminomethylcoumarin using a Victor 1420 Multilabel counter (Wallac) at an excitation wavelength of 395 nm and emission wavelength of 460 nm over a period of 60 min. […]

[2] = biological target: T2, erythrocyte-derived 20S proteasome, chymotrypsin-like activity (Homo sapiens, UniProt P20618+P28074); assay: 20S-Proteasome-Test (manual), chymotrypsin-like substrate; assay type: biochemical
T2 construct: using erythrocyte-derived 20S proteasome; purchased Biomol International PW8720; host or cells: human erythrocytes
Procedure: as §1, §2

20S proteasome = test system: T3, 20S proteasome; assay: Proteasome-assay, overall comparison in words (all three subunits); assay type: biochemical, human; conditions: compared with argyrin F
T3 construct: using erythrocyte-derived 20S proteasome; purchased Biomol International PW8720; host or cells: human erythrocytes
Procedure: as §1
Proteasome assays with purified 20S proteasome were performed as previously described (Lightcap et al., 2000) using erythrocyte-derived 20S proteasome (Biomol International,#LP PW8720) and fluorometric substrates Succ-LLVY-AMC, BZ-VGR-AMC and Z-Lle-AMC (Biomol International, LP PW9905). Proteasome extraction from cells and tumor sections was done as previously described (Crawford et al., 2006). For proteasome extraction from whole blood, frozen whole blood cell pellets were thawed and lysed in 2-3 pellet volumes cold lysis buffer (5 mM EDTA, pH 8.0). Lysates were spun down at 4° C. and the supernatant was transferred to a fresh tube. 5 μl was taken for the determination of protein concentration using a coomassie protein assay (Pierce, Rockford, Ill.). Proteasome assays using proteasome purified from cells or tissues were carried out in a 100 μL reaction volume containing 20 μg proteasome extract, 50 mmol/L EDTA and 60 μmol/L fluorogenic substrate (chymotrypsin-like(CT-L), trypsin-like(T-L) or caspase-like (C-L)) in ATP/DTT lysis buffer at 37° C. The assay buffer was supplemented with a final concentration of 0.05% SDS for the evalution of the chymotrypsin-like activity and caspase-like activity. The rate of cleavage of fluorogenic peptide substrates was determined by monitoring the fluorescence of released aminomethylcoumarin using a Victor 1420 Multilabel counter (Wallac) at an excitation wavelength of 395 nm and emission wavelength of 460 nm over a period of 60 min.

[3] = biological target: T4, erythrocyte-derived 20S proteasome, trypsin-like activity (Homo sapiens, UniProt P49720+Q99436); assay: 20S-Proteasome-Test (manual), trypsin-like substrate; assay type: biochemical
T4 construct: using erythrocyte-derived 20S proteasome; purchased Biomol International PW8720; host or cells: human erythrocytes
Procedure: as §1, §2

[4] = test system: H15GFP-p27 clone (HeLa-cell line; cervix-carcinoma); assay: GFP-fluorescence per FACS of p27-GFP clone H15GFP-p27; assay type: cell-based; conditions: GFP-fluorescence per FACS after 24 h incubation, 500 ng/ml
Description: (§3) The following table summarizes the effects of […]-derivatives B and F on two cancer cell lines, H15 (cervix carcinoma) and SW-480 (colon cancer). In order to test the efficacy, a p27-GFP-clone was used. [table]

[5] = test system: SW-480 (colon cancer cell line); assay: MTT-test, proliferation of SW-480; assay type: cell-based
Procedure: MTT assays were done as previously described (Sasse, F. et al. Argyrins, immunosuppressive cyclic peptides from myxobacteria. I. Production, isolation, physico-chemical and biological properties. J Antibiot (Tokyo) 55, 543-51 (2002)). TUNEL staining of tissue sections was performed on 10 micrometer sections which were deparafinised and treated as recommended by the manufacturer. (In Situ Cell Death Detection Kit, Fluorescein; ROCHE, Cat #11 684 795 910). Flow cytometric analysis of cultured cells was done using a Becton Dickinson fluorescence cytometer as previously described (Malek, N.P. et al. A mouse knock-in model exposes sequential proteolytic pathways that regulate p27^Kip1 in G1 and S phase. Nature 413, 323-7 (2001)). Analysis of the distribution of cells in the cell cycle and the sub-G1 fraction was done using Cell Quest software. A histone-associated-DNA-fragments ELISA was used to determine the number of apoptotic cells according to manufacturers instructions (Roche #11 774425001).

SW-480 (colon cancer) = assay: MIC (visual), serial dilution, SW-480 cells; assay type: cell-based; conditions: minimal concentration of a serial dilution exhibiting a visual effect
Description: as §3

H15 (cervix carcinoma) = assay: MIC (visual), serial dilution, H15 cells; assay type: cell-based; conditions: minimal concentration of a serial dilution exhibiting a visual effect
Description: as §3

rel. activ. in % after 20 min. ([1]; conc. in test 200 μmol/L)	IC50 ([5]; Homo sapiens, SW480, half-maximal inhibition of proliferation, read-out: IC-50 SW-480)	rel. activ. in % after 20 min. ([2]; conc. in test 200 μmol/L)	rel. activ. in % after 20 min. ([3]; conc. in test 200 μmol/L)	Molecule	rel. activ. in % after 20 min. ([1]; conc. in test 100 μmol/L)	rel. activ. in % after 20 min. ([2]; conc. in test 100 μmol/L)	inhibiting effect on the proteasome, compared in words (20S proteasome)	inhibiting effect on the proteasome, compared in words (20S proteasome; listed as Argyrin Ala alpha)	rel. activ. in % after 20 min. ([3]; conc. in test 100 μmol/L)	Mean of FSC-H (Log) H15 p27-GFP-clone [4]	MIC (visual) SW-480 (SW-480 (colon cancer))	MIC (visual) HIS (H15 (cervix carcinoma))	IC-50 SW-480 ([5]; half-maximal inhibition of proliferation)	inhibiting effect on the proteasome, compared in words (20S proteasome; listed as argyrin Ala beta)
				C=C1NC(=O)[C@@H](C)NC(=O)[C@@H](C)NC(=O)[C@H](Cc2c[nH]c3cccc(OC)c23)NC(=O)[C@H](Cc2c[nH]c3ccccc23)NC(=O)c2csc(n2)[C@@H](CO)NC(=O)CN(C)C1=O [Argyrin ala alpha] (cyclo([Dha][Sar][X1]W[Trp(4-OMe)][dA][dA]))	11%	17%	higher activities than Argyrin F	slightly less active	72%					
17%	0.05 µg/mL (≈ 0.0595 µM)	15%	32%	C=C1NC(=O)[C@@H](C)NC(=O)CNC(=O)[C@H](Cc2c[nH]c3cccc(OC)c23)NC(=O)[C@H](Cc2c[nH]c3ccccc23)NC(=O)c2csc(n2)[C@@H](CO)NC(=O)CN(C)C1=O [Argyrin F] (cyclo([Dha][Sar][X1]W[Trp(4-OMe)]G[dA]))						11.24	0.2 µg/mL (≈ 0.238 µM)	0.5 µg/mL (≈ 0.595 µM)		
				Argyrin B						7.60	12 µg/mL	12 µg/mL	Ca. 0.05 μg/ml	
				C=C1NC(=O)[C@@H](C)NC(=O)[C@H](C)NC(=O)[C@H](Cc2c[nH]c3cccc(OC)c23)NC(=O)[C@H](Cc2c[nH]c3ccccc23)NC(=O)c2csc(n2)[C@@H](CO)NC(=O)CN(C)C1=O [Argyrin ala beta] (cyclo(A[dA][Dha][Sar][X1]W[Trp(4-OMe)]))	7%	8%	higher activities than Argyrin F		26%					stronger inhibiting effect on the proteasome than argyrin F
